Patent publication US20050065187A1, “Novel antimicrobial aryloxazolidinone compounds” (priority 2003, published 2005)
Values after ≈ are worked out from the molar mass of the structure shown.

Legend:
Assay in all cases: Antibacterial assay (Test A), microtitration MIC
MC 30603 = type: cell-based, M. catarrhalis; details: Moraxella catarrhalis; Minimum Inhibitory Concentration, strain MC 30603; read-out: MC 30603 MIC
Procedure: (§1) Test A—Antibacterial Assays
(§2) The compounds of the present invention were tested against an assortment of Gram-negative and Gram-positive organisms using standard microtitration techniques (Cohen et. al., Antimicrob., 1985;28:766; Heifetz, et. al., Antimicrob., 1974;6:124).

SPNE 9912 = type: cell-based, S. pneumoniae; details: Streptococcus pneumoniae; Minimum Inhibitory Concentration, strain SPNE 9912; read-out: SPNE 9912 MIC
Procedure: as §1, §2

HINF 30063 = type: cell-based, H. influenza; details: Minimum Inhibitory Concentration, strain HINF 30063
Procedure: as §1, §2

SAUR 9213 = type: cell-based, S. aureus; details: Staphylococcus aureus; Minimum Inhibitory Concentration, strain SAUR 9213; read-out: SAUR 9213 MIC
Procedure: as §1, §2

Work on `O=C1O[C@@H](CNC(=S)C(F)F)CN1c1ccc(C2CCC(O)C(F)C2)c(F)c1` (single isomer, unassigned) [Example 28, 2,2-Difluoro-N-{3-[3-fluoro-4-(3-fluoro-4-hydroxy-cyclohexyl)-phenyl]-2-oxo-oxazolidin-5-ylmethyl}-thioacetamide] yielded an MIC (MC 30603) of 2 µg/mL (≈ 4.76 µM), an MIC (SPNE 9912) of 0.5 µg/mL (≈ 1.19 µM) and an MIC (HINF 30063) of 32 µg/mL (≈ 76.1 µM). The MIC (SAUR 9213) was 1 µg/mL (≈ 2.38 µM).
